Measured values: PubChem BioAssay AID248 (DTP/NCI, 2004)
Several values for one entry are separate records, joined by “and”; a condition that tells them apart may be missing. Equal values may be shown once. Toxic doses and inconclusive results are not listed. No stated cut-off is given here; in the data, active means T/C of 150% or more; inactive means T/C below 125%.

Tested on: L1210 leukemia ip in BDF1 mice, survival T/C
Assay: NCI In Vivo Anticancer Drug Screen. Data for tumor model L1210 Leukemia (intraperitoneal) in B6D2F1 (BDF1) mice
Conditions: higher = longer survival
Method in brief: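 In this screen, tumor-bearing mice given compound are compared to those given vehicle, and their survival values are reported as a treated-to-control quotient.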

[1] = endpoint: mean survival time, dose: 100.0 mg/kg/injection, schedule: Q04DX003 (ip), vehicle: saline with Tween-80
[2] = endpoint: mean survival time, dose: 200.0 mg/kg/injection, schedule: Q04DX003 (ip), vehicle: saline with Tween-80
[3] = endpoint: mean survival time, dose: 100.0 mg/kg/injection, schedule: Q01DX001 (ip), vehicle: carboxymethylcellulose (CMC)
[4] = endpoint: mean survival time, dose: 200.0 mg/kg/injection, schedule: Q01DX001 (ip), vehicle: carboxymethylcellulose (CMC)
[5] = endpoint: mean survival time, dose: 400.0 mg/kg/injection, schedule: Q01DX001 (ip), vehicle: carboxymethylcellulose (CMC)
[6] = endpoint: mean survival time, dose: 100.0 mg/kg/injection, schedule: Q04DX003 (ip), vehicle: Klucel (hydroxypropylcellulose) (HPC)
[7] = endpoint: mean survival time, dose: 200.0 mg/kg/injection, schedule: Q04DX003 (ip), vehicle: Klucel (hydroxypropylcellulose) (HPC)
[8] = endpoint: mean survival time, dose: 400.0 mg/kg/injection, schedule: Q04DX003 (ip), vehicle: Klucel (hydroxypropylcellulose) (HPC)
[9] = endpoint: mean survival time, dose: 50.0 mg/kg/injection, schedule: Q01DX001 (ip), vehicle: carboxymethylcellulose (CMC)
[10] = endpoint: mean survival time, dose: 100.0 mg/kg/injection, schedule: Q01DX009 (ip), vehicle: saline with Tween-80
[11] = endpoint: mean survival time, dose: 200.0 mg/kg/injection, schedule: Q01DX009 (ip), vehicle: saline with Tween-80
[12] = endpoint: mean survival time, dose: 100.0 mg/kg/injection, schedule: Q01DX009 (ip), vehicle: Klucel (hydroxypropylcellulose) (HPC)
[13] = endpoint: mean survival time, dose: 200.0 mg/kg/injection, schedule: Q01DX009 (ip), vehicle: Klucel (hydroxypropylcellulose) (HPC)
[14] = endpoint: mean survival time, dose: 400.0 mg/kg/injection, schedule: Q01DX009 (ip), vehicle: Klucel (hydroxypropylcellulose) (HPC)
[15] = endpoint: mean survival time, dose: 100.0 mg/kg/injection, schedule: Q01DX001 (ip), vehicle: Klucel (hydroxypropylcellulose) (HPC)
[16] = endpoint: mean survival time, dose: 200.0 mg/kg/injection, schedule: Q01DX001 (ip), vehicle: Klucel (hydroxypropylcellulose) (HPC)
[17] = endpoint: mean survival time, dose: 400.0 mg/kg/injection, schedule: Q01DX001 (ip), vehicle: Klucel (hydroxypropylcellulose) (HPC)

Measured: T/C

Nc1ncnc(Nc2ccccc2[N+](=O)[O-])c1[N+](=O)[O-]
inactive: endpoint: mean survival time, dose: 12.5 mg/kg/injection, schedule: Q01DX001 (ip), vehicle: Klucel (hydroxypropylcellulose) (HPC) 97 % of control | endpoint: mean survival time, dose: 25.0 mg/kg/injection, schedule: Q01DX001 (ip), vehicle: Klucel (hydroxypropylcellulose) (HPC) 87 % of control | endpoint: mean survival time, dose: 50.0 mg/kg/injection, schedule: Q01DX001 (ip), vehicle: Klucel (hydroxypropylcellulose) (HPC) 87 % of control

COC(=O)C1c2ccoc2CC2C1C(O)C(O)C1C(C)(C)CCCC21C (configuration not stated)
inactive: endpoint: mean survival time, dose: 50.0 mg/kg/injection, schedule: Q04DX003 (ip), vehicle: saline with Tween-80 103 % of control | [1] 95 % of control | [2] 95 % of control

CCOC(=O)C(C)N(c1ccccc1)S(=O)(=O)c1ccc(C)cc1 (configuration not stated)
inactive: [3] 103 % of control | [4] 110 % of control | [5] 113 % of control

COc1ccc(C(=O)Nc2ccc([N+](=O)[O-])cc2O)cc1
inactive: [6] 103 % of control | [7] 104 % of control | [8] 97 % of control

CC[C@@H]1CN(C)[C@H]2Cc3c([nH]c4ccccc34)C(=O)C[C@H]1C2C(=O)OC (some centres not stated)
inactive: endpoint: mean survival time, dose: 75.0 mg/kg/injection, schedule: Q01DX001 (ip), vehicle: carboxymethylcellulose (CMC) 97 % of control | endpoint: mean survival time, dose: 150.0 mg/kg/injection, schedule: Q01DX001 (ip), vehicle: carboxymethylcellulose (CMC) 95 % of control | endpoint: mean survival time, dose: 300.0 mg/kg/injection, schedule: Q01DX001 (ip), vehicle: carboxymethylcellulose (CMC) 95 % of control

Nc1ccccc1C(=O)O
inactive: [9] 98 % of control | [3] 91 % of control | endpoint: mean survival time, dose: 178.0 mg/kg/injection, schedule: Q01DX001 (ip), vehicle: carboxymethylcellulose (CMC) 92 % of control | [4] 91 % of control | endpoint: mean survival time, dose: 267.0 mg/kg/injection, schedule: Q01DX001 (ip), vehicle: carboxymethylcellulose (CMC) 94 % of control | [5] 92 % of control | endpoint: mean survival time, dose: 600.0 mg/kg/injection, schedule: Q01DX001 (ip), vehicle: carboxymethylcellulose (CMC) 92 % of control

[Cl][Sb]([c]1ccccc1)([c]1ccccc1)([c]1ccccc1)[c]1ccccc1
inactive: endpoint: mean survival time, dose: 2.4 mg/kg/injection, schedule: Q01DX009 (ip), vehicle: saline 101 % of control | endpoint: mean survival time, dose: 4.7 mg/kg/injection, schedule: Q01DX009 (ip), vehicle: saline 94 % of control | endpoint: mean survival time, dose: 9.4 mg/kg/injection, schedule: Q01DX009 (ip), vehicle: saline 91 % of control

O=CC(O)C(O)C(OC1OC(CO)C(O)C(O)C1O)C(O)CO (configuration not stated)
inactive: endpoint: mean survival time, dose: 100.0 mg/kg/injection, schedule: Q04DX002 (ip), vehicle: carboxymethylcellulose (CMC) 93 % of control and 117 % of control | endpoint: mean survival time, dose: 100.0 mg/kg/injection, schedule: Q04DX003 (ip), vehicle: carboxymethylcellulose (CMC) 99 % of control | endpoint: mean survival time, dose: 200.0 mg/kg/injection, schedule: Q04DX002 (ip), vehicle: carboxymethylcellulose (CMC) 93 % of control and 92 % of control | endpoint: mean survival time, dose: 200.0 mg/kg/injection, schedule: Q04DX003 (ip), vehicle: carboxymethylcellulose (CMC) 96 % of control | endpoint: mean survival time, dose: 400.0 mg/kg/injection, schedule: Q04DX002 (ip), vehicle: carboxymethylcellulose (CMC) 100 % of control and 86 % of control | endpoint: mean survival time, dose: 400.0 mg/kg/injection, schedule: Q04DX003 (ip), vehicle: carboxymethylcellulose (CMC) 87 % of control

CCCc1cc(CCC)n2nc(N)nc2n1
inactive: endpoint: mean survival time, dose: 50.0 mg/kg/injection, schedule: Q01DX009 (ip), vehicle: saline with Tween-80 100 % of control | [10] 98 % of control | [11] 96 % of control

Cc1c(Cl)cccc1NC(=O)COc1ccc(Cl)cc1
inactive: [12] 110 % of control | [6] 93 % of control | [13] 94 % of control | [7] 91 % of control | [14] 95 % of control | [8] 91 % of control

C#CCC#Cc1ccccc1
inactive: [10] 89 % of control | [11] 92 % of control

CN(C)c1ccc(/C=C/c2ccc3ccccc3n2)cc1
inactive: [15] 100 % of control | [12] 103 % of control | [16] 97 % of control | [13] 100 % of control | [17] 101 % of control | [14] 95 % of control

Cc1ccc(S(=O)(=O)OC2C3OC(=S)OCC3OC3OC(C)(C)OC32)cc1 (configuration not stated)
inactive: endpoint: mean survival time, dose: 25.0 mg/kg/injection, schedule: Q04DX002 (ip), vehicle: saline 104 % of control | endpoint: mean survival time, dose: 50.0 mg/kg/injection, schedule: Q04DX002 (ip), vehicle: saline 107 % of control | endpoint: mean survival time, dose: 100.0 mg/kg/injection, schedule: Q04DX002 (ip), vehicle: saline 107 % of control

C=CCC1CC2(C)C(CCC3C2CCC2(C)C(OC(C)=O)CCC32)CC1=O (configuration not stated)
inactive: endpoint: mean survival time, dose: 10.0 mg/kg/injection, schedule: Q01DX009 (ip), vehicle: gum acacia 89 % of control | endpoint: mean survival time, dose: 200.0 mg/kg/injection, schedule: Q01DX009 (ip), vehicle: gum acacia 88 % of control

O=C(c1ccccc1)c1ccn[nH]1
inactive: [15] 106 % of control | [16] 103 % of control | [17] 108 % of control

Cc1cc(N(CCCl)CCCl)ccc1N=Nc1ccccc1
inactive: endpoint: median survival time, dose: 100.0 mg/kg/injection, schedule: Q01DX009 (ip), vehicle: Klucel (hydroxypropylcellulose) (HPC) 98 % of control | endpoint: median survival time, dose: 200.0 mg/kg/injection, schedule: Q01DX009 (ip), vehicle: Klucel (hydroxypropylcellulose) (HPC) 97 % of control | endpoint: median survival time, dose: 400.0 mg/kg/injection, schedule: Q01DX009 (ip), vehicle: Klucel (hydroxypropylcellulose) (HPC) 93 % of control

CCCCCCCCC(=O)N(C)OC
inactive: [1] 93 % of control | [2] 93 % of control

c1nc(N2CC2)c2cnn(C3CCCCO3)c2n1 (configuration not stated)
inactive: [9] 97 % of control | endpoint: mean survival time, dose: 50.0 mg/kg/injection, schedule: Q01DX009 (ip), vehicle: saline 102 % of control | [3] 103 % of control | endpoint: mean survival time, dose: 100.0 mg/kg/injection, schedule: Q01DX009 (ip), vehicle: saline 113 % of control | endpoint: mean survival time, dose: 100.0 mg/kg/injection, schedule: Q04DX003 (ip), vehicle: saline 100 % of control | [4] 106 % of control | endpoint: mean survival time, dose: 200.0 mg/kg/injection, schedule: Q01DX009 (ip), vehicle: saline 112 % of control | endpoint: mean survival time, dose: 200.0 mg/kg/injection, schedule: Q04DX003 (ip), vehicle: saline 97 % of control | [5] 103 % of control

O=C1C(Cl)=C(N=Nc2c(Cl)c(O)c3ccccc3c2O)C(=O)c2ccccc21
inactive: endpoint: mean survival time, dose: 12.5 mg/kg/injection, schedule: Q01DX009 (ip), vehicle: acetone 105 % of control | endpoint: mean survival time, dose: 25.0 mg/kg/injection, schedule: Q01DX009 (ip), vehicle: acetone 107 % of control | endpoint: mean survival time, dose: 50.0 mg/kg/injection, schedule: Q01DX009 (ip), vehicle: acetone 104 % of control | [3] 97 % of control

CCCCCCCCCCCCCCCCCC(CC)c1ccccc1 (configuration not stated)
inactive: endpoint: mean survival time, dose: 100.0 mg/kg/injection, schedule: Q01DX001 (ip), vehicle: saline with Tween-80 104 % of control | endpoint: mean survival time, dose: 200.0 mg/kg/injection, schedule: Q01DX001 (ip), vehicle: saline with Tween-80 94 % of control | endpoint: mean survival time, dose: 400.0 mg/kg/injection, schedule: Q01DX001 (ip), vehicle: saline with Tween-80 94 % of control
